# Laboratory results reported in ChEMBL document CHEMBL5291721, “A preclinical secondary pharmacology resource illuminates target-adverse drug reaction associations of marketed drugs” (Nat Commun, 2023).
# Columns and labels:
# [1] = biological target: Adenosine receptor A2a (Homo sapiens, UniProt P29274)
# [2] = biological target: T1, Alpha-2A adrenergic receptor (Homo sapiens, UniProt P08913); assay type: functional, cell-based
# T1 sequence (P08913 whole entry): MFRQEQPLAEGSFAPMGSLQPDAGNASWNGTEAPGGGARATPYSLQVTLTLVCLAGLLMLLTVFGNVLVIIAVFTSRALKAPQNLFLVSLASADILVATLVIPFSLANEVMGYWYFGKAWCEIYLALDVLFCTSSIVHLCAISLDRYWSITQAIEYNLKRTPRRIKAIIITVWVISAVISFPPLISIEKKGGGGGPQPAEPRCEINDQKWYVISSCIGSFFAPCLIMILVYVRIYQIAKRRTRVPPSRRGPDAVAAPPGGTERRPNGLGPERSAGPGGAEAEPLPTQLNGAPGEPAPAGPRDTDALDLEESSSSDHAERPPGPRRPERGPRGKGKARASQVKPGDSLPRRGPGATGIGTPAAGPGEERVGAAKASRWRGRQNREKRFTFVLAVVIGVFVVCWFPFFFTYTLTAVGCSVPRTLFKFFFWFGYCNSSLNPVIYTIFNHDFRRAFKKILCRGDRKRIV
# [3] = biological target: T2, Muscarinic acetylcholine receptor M1 (Homo sapiens, UniProt P11229); assay type: functional
# T2 sequence (P11229 whole entry): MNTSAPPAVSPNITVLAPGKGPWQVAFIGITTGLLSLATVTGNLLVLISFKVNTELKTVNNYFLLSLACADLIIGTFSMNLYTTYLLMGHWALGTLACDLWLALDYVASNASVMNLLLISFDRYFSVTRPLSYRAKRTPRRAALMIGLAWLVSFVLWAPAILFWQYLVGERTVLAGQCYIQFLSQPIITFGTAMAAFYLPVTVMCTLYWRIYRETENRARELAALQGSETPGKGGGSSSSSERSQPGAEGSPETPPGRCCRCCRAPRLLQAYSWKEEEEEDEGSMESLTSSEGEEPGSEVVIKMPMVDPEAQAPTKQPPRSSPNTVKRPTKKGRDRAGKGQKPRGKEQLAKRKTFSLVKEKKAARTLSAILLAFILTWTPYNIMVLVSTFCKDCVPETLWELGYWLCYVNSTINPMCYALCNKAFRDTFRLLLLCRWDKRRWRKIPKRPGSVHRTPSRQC
# [4] = biological target: Gamma-aminobutyric acid receptor subunit alpha-1 (Rattus norvegicus, UniProt P62813); assay type: functional
# [5] = biological target: Glutamate receptor ionotropic, NMDA 1 (Rattus norvegicus, UniProt P35439)
# [6] = biological target: Histamine H1 receptor (Homo sapiens, UniProt P35367)
# [7] = biological target: Histamine H2 receptor (Homo sapiens, UniProt P25021); assay type: functional, cell-based
# [8] = biological target: T3, 5-hydroxytryptamine receptor 2C (Homo sapiens, UniProt P28335)
# T3 sequence (P28335 whole entry): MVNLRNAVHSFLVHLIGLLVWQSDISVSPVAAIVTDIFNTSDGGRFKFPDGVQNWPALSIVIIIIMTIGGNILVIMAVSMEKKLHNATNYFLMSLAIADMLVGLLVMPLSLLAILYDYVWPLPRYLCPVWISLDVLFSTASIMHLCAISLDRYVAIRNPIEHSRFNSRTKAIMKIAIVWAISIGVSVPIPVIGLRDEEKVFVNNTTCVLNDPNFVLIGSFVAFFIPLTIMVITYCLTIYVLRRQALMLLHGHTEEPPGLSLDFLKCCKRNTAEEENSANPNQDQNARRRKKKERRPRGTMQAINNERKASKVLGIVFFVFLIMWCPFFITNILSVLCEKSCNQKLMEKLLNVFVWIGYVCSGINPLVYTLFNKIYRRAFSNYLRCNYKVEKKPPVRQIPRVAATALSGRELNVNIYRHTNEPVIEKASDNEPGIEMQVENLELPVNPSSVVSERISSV
# [9] = biological target: Melanocortin receptor 3 (Homo sapiens, UniProt P41968)
# [10] = biological target: 3',5'-cyclic-AMP phosphodiesterase 4D (Homo sapiens, UniProt Q08499); assay type: functional
# [11] = biological target: Sodium-dependent dopamine transporter (Homo sapiens, UniProt Q01959)
# [12] = biological target: Sodium-dependent noradrenaline transporter (Homo sapiens, UniProt P23975)
# [13] = biological target: T4, Amine oxidase [flavin-containing] A (Homo sapiens, UniProt P21397); assay type: functional
# T4 sequence (P21397 whole entry): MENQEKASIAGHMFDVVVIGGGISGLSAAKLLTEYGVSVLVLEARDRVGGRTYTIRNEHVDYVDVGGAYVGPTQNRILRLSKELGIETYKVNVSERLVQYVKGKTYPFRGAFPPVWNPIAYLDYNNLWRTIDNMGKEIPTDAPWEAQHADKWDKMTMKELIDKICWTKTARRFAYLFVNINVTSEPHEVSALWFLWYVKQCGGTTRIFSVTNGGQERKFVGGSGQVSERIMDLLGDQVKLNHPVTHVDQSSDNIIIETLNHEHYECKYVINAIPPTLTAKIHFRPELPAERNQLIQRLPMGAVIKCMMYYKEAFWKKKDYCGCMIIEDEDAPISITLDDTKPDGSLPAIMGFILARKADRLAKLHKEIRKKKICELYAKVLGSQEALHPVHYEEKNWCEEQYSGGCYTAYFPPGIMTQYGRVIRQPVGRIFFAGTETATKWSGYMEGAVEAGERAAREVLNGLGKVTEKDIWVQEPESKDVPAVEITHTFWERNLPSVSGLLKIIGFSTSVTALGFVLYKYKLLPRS
# [14] = biological target: D(3) dopamine receptor (Homo sapiens, UniProt P35462)
# Further: assay procedure not described here.
# Adenosine receptor A2a, sequence (P29274 whole entry): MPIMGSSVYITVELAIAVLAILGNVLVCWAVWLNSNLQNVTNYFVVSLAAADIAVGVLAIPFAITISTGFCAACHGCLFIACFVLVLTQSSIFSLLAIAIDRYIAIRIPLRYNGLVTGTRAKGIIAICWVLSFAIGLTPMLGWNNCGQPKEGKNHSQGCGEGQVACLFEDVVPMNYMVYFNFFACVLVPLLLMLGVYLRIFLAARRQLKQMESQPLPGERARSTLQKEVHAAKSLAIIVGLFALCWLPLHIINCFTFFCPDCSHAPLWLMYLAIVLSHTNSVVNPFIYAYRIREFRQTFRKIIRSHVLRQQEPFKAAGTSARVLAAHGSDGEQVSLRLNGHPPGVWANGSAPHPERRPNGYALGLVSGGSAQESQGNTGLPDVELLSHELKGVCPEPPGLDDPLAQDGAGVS
# Sodium-dependent dopamine transporter, sequence (Q01959 whole entry): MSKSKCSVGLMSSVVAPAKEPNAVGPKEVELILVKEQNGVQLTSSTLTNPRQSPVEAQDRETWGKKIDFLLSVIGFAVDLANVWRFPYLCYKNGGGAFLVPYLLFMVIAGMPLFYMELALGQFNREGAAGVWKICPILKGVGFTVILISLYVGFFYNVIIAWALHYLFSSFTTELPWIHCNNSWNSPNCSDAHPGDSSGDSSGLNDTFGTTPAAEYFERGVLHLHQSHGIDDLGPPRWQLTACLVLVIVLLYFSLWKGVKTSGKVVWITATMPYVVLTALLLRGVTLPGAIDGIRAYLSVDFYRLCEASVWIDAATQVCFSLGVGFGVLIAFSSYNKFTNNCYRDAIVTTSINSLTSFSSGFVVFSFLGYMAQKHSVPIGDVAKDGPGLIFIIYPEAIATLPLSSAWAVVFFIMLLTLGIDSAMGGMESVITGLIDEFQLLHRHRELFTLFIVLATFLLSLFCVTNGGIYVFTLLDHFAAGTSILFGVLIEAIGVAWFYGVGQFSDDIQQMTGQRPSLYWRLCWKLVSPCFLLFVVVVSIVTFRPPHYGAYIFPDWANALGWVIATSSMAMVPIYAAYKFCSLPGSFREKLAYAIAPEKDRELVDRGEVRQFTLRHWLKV
# Histamine H1 receptor, sequence (P35367 whole entry): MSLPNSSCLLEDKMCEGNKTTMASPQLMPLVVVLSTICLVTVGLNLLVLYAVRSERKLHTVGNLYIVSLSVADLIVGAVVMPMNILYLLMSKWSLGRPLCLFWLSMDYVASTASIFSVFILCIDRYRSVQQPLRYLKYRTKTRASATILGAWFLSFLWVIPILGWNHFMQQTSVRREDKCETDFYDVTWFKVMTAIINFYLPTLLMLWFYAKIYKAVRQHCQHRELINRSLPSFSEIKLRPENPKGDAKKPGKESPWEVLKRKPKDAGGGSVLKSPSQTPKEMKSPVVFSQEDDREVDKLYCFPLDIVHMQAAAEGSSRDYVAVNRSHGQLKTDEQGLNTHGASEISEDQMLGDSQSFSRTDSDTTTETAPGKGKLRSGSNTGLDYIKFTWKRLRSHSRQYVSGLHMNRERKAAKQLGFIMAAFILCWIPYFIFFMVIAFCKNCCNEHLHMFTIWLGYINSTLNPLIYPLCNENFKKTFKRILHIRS
# Histamine H2 receptor, sequence (P25021 whole entry): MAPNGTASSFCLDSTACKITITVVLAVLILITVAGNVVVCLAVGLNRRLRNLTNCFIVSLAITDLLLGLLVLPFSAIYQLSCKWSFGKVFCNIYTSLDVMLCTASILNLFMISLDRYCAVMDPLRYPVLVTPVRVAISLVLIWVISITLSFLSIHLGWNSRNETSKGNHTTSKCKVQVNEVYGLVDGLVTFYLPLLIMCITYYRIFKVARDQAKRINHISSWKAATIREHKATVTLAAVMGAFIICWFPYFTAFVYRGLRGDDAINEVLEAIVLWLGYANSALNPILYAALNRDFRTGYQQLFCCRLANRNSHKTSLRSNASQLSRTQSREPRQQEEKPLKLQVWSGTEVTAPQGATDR
# D(3) dopamine receptor, sequence (P35462 whole entry): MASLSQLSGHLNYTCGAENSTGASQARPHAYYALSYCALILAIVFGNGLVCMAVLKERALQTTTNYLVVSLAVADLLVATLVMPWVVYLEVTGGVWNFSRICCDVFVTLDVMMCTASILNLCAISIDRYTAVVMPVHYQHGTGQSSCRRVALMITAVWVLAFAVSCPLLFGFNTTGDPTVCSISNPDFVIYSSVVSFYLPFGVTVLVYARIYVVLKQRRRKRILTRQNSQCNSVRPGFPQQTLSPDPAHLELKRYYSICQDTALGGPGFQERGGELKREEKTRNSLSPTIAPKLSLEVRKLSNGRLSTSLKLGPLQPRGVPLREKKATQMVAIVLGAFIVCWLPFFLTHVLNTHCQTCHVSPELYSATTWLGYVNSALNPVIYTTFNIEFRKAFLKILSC
# Sodium-dependent noradrenaline transporter, sequence (P23975 whole entry): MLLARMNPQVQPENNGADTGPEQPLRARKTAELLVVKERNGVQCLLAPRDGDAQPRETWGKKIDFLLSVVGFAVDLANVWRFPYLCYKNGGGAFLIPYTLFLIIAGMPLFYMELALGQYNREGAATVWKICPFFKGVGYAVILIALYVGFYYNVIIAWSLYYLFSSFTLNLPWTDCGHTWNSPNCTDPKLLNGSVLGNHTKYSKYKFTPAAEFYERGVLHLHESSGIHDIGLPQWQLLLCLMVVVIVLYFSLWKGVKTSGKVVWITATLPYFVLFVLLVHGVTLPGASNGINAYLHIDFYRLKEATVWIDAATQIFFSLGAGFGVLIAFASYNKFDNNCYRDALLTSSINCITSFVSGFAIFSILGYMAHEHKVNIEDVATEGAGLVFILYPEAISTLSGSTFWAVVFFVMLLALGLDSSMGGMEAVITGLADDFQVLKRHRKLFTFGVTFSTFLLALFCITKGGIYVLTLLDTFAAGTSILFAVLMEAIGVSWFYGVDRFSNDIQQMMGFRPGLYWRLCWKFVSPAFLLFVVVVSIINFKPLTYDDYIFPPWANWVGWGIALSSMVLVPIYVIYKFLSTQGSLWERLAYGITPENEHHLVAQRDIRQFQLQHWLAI
# 3',5'-cyclic-AMP phosphodiesterase 4D, sequence (Q08499 whole entry): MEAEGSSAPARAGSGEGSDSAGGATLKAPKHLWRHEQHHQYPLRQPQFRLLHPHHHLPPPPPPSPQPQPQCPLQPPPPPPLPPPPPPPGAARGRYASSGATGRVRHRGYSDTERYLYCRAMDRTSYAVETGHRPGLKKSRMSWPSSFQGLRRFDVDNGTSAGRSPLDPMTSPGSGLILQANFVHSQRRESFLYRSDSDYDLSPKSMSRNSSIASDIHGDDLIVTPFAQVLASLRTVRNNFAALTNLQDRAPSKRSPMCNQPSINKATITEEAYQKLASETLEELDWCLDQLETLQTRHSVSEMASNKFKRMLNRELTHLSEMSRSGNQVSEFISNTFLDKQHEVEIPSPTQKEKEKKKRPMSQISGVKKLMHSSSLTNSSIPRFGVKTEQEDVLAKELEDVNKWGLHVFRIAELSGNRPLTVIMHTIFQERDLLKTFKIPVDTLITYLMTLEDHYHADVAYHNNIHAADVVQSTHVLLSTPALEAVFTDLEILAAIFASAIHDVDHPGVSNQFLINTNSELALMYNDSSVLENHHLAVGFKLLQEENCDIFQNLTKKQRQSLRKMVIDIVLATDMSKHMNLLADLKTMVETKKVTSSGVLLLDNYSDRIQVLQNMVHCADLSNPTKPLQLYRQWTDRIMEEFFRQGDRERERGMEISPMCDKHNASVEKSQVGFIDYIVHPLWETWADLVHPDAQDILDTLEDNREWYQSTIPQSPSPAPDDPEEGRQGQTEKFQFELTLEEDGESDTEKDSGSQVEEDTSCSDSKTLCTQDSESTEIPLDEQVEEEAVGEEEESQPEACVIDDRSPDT
# Gamma-aminobutyric acid receptor subunit alpha-1, sequence (P62813 whole entry): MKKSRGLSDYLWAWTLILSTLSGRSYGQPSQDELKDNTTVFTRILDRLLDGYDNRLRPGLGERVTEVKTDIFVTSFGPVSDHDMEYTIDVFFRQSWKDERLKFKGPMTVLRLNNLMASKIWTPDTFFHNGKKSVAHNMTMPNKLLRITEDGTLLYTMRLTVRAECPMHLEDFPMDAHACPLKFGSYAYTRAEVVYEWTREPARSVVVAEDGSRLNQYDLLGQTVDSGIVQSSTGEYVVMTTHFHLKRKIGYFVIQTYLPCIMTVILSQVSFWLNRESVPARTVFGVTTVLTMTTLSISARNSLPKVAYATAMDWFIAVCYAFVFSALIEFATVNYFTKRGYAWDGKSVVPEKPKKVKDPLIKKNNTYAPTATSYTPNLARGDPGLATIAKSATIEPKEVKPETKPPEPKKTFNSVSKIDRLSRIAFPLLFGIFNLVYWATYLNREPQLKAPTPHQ
# Melanocortin receptor 3, sequence (P41968 whole entry): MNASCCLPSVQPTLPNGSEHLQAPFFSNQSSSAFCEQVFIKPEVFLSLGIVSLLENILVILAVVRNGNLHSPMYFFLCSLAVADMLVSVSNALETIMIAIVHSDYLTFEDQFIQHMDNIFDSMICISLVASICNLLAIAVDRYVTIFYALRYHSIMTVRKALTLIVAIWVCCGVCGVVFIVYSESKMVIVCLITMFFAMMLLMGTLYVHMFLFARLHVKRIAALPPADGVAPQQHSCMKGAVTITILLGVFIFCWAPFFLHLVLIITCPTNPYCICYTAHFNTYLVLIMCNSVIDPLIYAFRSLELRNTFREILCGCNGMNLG
smiles,measurement,setting,value
C[N+](C)(C)CC(=O)O [BETAINE],AC50,[1],> 30 µM
same,AC50,[2],> 30 µM
same,AC50,[3],> 30 µM
same,AC50,[4],> 30 µM
same,AC50,[5],> 30 µM
same,AC50,[6],> 30 µM
same,AC50,[7],> 30 µM
same,AC50,[8],> 30 µM
same,AC50,[9],> 30 µM
same,AC50,[10],> 30 µM
same,AC50,[11],> 30 µM
same,AC50,[12],> 30 µM
same,AC50,[13],> 30 µM
same,AC50,[14],> 30 µM
CC(=O)N(CC(O)CO)c1c(I)c(C(=O)NCC(O)CO)c(I)c(C(=O)NCC(O)CO)c1I (configuration not stated) [IOHEXOL],AC50,[1],> 30 µM
same,AC50,[2],> 10 µM
same,AC50,[3],> 10 µM
same,AC50,[4],> 10 µM
same,AC50,[5],> 10 µM
same,AC50,[6],> 10 µM
same,AC50,[7],> 10 µM
same,AC50,[8],> 30 µM
same,AC50,[9],> 30 µM
same,AC50,[10],> 30 µM
same,AC50,[11],> 30 µM
same,AC50,[12],> 30 µM
same,AC50,[13],> 10 µM
same,AC50,[14],> 30 µM
NS(=O)(=O)c1cc2c(cc1Cl)NC(CC1CCCC1)NS2(=O)=O (configuration not stated) [CYCLOPENTHIAZIDE],AC50,[2],> 30 µM
same,AC50,[3],> 30 µM
same,AC50,[4],> 30 µM
same,AC50,[5],> 30 µM
same,AC50,[6],> 30 µM
same,AC50,[7],> 30 µM
same,AC50,[8],> 30 µM
same,AC50,[10],> 30 µM
same,AC50,[13],> 30 µM
same,AC50,[14],> 30 µM
CO/N=C(\C(=O)N[C@@H]1C(=O)N2C(C(=O)OCOC(=O)C(C)(C)C)=C(C)CS[C@H]12)c1csc(N)n1,AC50,[2],> 30 µM
same,AC50,[3],> 30 µM
same,AC50,[4],> 30 µM
same,AC50,[5],> 30 µM
same,AC50,[6],> 30 µM
same,AC50,[7],> 30 µM
same,AC50,[8],> 30 µM
same,AC50,[10],> 30 µM
same,AC50,[13],> 30 µM
same,AC50,[14],> 30 µM
CC(=O)O[C@]1(C(C)=O)CC[C@H]2[C@@H]3C[C@H](C)C4=CC(=O)CC[C@]4(C)[C@H]3CC[C@@]21C [MEDROXYPROGESTERONE ACETATE],AC50,[1],> 30 µM
same,AC50,[9],> 30 µM
same,AC50,[11],> 30 µM
same,AC50,[12],> 30 µM
N/N=c1/cc2c(n[nH]1)CCN(C(=O)c1ccccc1)C2 [ENDRALAZINE],AC50,[2],> 30 µM
same,AC50,[3],> 30 µM
same,AC50,[4],> 30 µM
same,AC50,[5],> 30 µM
same,AC50,[6],> 30 µM
same,AC50,[7],> 30 µM
same,AC50,[8],> 30 µM
same,AC50,[10],> 30 µM
same,AC50,[13],> 30 µM
same,AC50,[14],> 30 µM
O=P(O)(O)C(O)(Cc1cccnc1)P(=O)(O)O [RISEDRONIC ACID],AC50,[1],> 30 µM
same,AC50,[2],> 30 µM
same,AC50,[4],> 30 µM
same,AC50,[5],> 30 µM
same,AC50,[7],> 10 µM
same,AC50,[8],> 30 µM
same,AC50,[9],> 30 µM
same,AC50,[10],> 30 µM
same,AC50,[11],> 30 µM
same,AC50,[12],> 30 µM
same,AC50,[13],> 30 µM
same,AC50,[14],> 30 µM
CC(C(O)c1ccc(O)cc1)N1CCC(Cc2ccccc2)CC1 (configuration not stated) [IFENPRODIL],AC50,[1],> 30 µM
same,AC50,[2],> 30 µM
same,AC50,[3],> 30 µM
same,AC50,[4],> 30 µM
same,AC50,[6],1 µM
same,AC50,[7],> 30 µM
same,AC50,[8],> 30 µM
same,AC50,[9],> 30 µM
same,AC50,[10],> 30 µM
same,AC50,[11],1.2 µM
same,AC50,[12],2.5 µM
same,AC50,[13],> 30 µM
same,AC50,[14],1.2 µM
COCC1=C(C(=O)OC(C)OC(=O)OC(C)C)N2C(=O)[C@@H](NC(=O)/C(=N\OC)c3csc(N)n3)[C@H]2SC1 (some centres not stated) [CEFPODOXIME PROXETIL],AC50,[2],> 30 µM
same,AC50,[3],> 30 µM
same,AC50,[4],> 30 µM
same,AC50,[5],> 30 µM
same,AC50,[6],> 30 µM
same,AC50,[7],> 30 µM
same,AC50,[8],> 30 µM
same,AC50,[10],29 µM
same,AC50,[13],> 30 µM
same,AC50,[14],> 30 µM
